Experimental data published in US20230167058A1, “GPX4 COMPOUNDS AND COMPOSITIONS AND METHODS OF TREATMENT USING SAME” (THE TRUSTEES OF COLUMBIA UNIVERSITY IN THE CITY OF NEW YORK, priority 2020, published 2023).
Where two headings read alike, the source gives them in different places.

How the values were obtained:
[1] = tested on: GPX4 protein level in HT-1080 cells; assay: Western blot GPX4 degradation study in HT-1080; type: cell-based, human; details: 1 μM RSL3, 1 μM ML162, 10 μM FIN56, 10 h, with 100 μM α-tocopherol
Method: For the GPX4 degradation study, HT-1080 cells were seeded at 800,000 per well in a 60-mm plate and allowed to adhere overnight. Cells were then treated with 100 μM α-tocopherol and either 1 μM RSL3, 1 μM ML162, 10 μM IKE, 10 μM FIN56, or vehicle for 10 h. Cells were harvested with trypsin (Invitrogen, 25200-114), pelleted, and lysed with RIPA buffer.
For both experiments, cell lysates were blotted and imaged as previously described (Yang et al. 2014). Antibodies used were GPX4 (Abcam, ab125066, 1:250 dilution), actin (Cell Signaling, D18C11, 1:3,000 dilution), and GAPDH (Santa Cruz, sc-47724, 1:10,000 dilution). Results were quantified using a LI-COR Odyssey CLx IR scanner and GraphPad Prism 7.

GPX4^U46C [2] = biological target: T1, GPX4^U46C (Homo sapiens, UniProt P36969, U73C); assay: Thermal shift assay (screen of LOC library); type: binding; details: Table 1
T1 construct: His6 (N, cleaved yes); made in house; host or cells: E. coli BL21-Gold (DE3), M9 minimal medium with 15NH4Cl
T1 sequence (P36969 33-197 U73C): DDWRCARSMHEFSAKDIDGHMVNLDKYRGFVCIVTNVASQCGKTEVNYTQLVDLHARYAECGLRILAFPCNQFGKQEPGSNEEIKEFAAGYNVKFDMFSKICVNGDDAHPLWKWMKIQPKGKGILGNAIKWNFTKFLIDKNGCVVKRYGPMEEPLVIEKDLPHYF
Method: To fully utilize the versatility shown by the […] site to accommodate structurally diverse compounds, we applied thermal shift assay to screen 9,719 compounds in the Lead-Optimized-Compound (LOC) library for in vitro binders of GPX4^U46C, which would shift the melting temperature of GPX4^U46C (|ΔTm|>2° C., FIG. 12D) (Kaplan et al. 2015).
Since the binding of small molecules may alter the thermostability of protein, we applied thermal shift assay to screen the LOC library, which determined binding of ligand from the change of the unfolding transition temperature (ΔTm) obtained in the presence of ligands relative to that obtained in the absence of ligands (Kaplan et al. 2015; Lo et al. 2004). For higher throughput purpose, we adapted the assay on 384-well PCR plate. With the assistance of Biomek Automated Liquid Handler (Beckman), 2 μl 10 mM stock solution (in 100% DMSO) of the each compound was transferred from 384-well library plates to 38 μl FPLC buffer (100 mM Tris pH 8.0, 300 mM NaCl, 3 mM TCEP) and mixed in each well of a 384-well mother plate. The compound solution was then dispensed, 12 μl per well, into three 384-well PCR plates. GPX4^U46C protein and Sypro orange were manually added to the plate, with the final concentrations of 5 μM and 5×, respectively, to make a volume of 20 μl per well right before thermal shift analysis of the specific plate. The thermal shift assay was performed on the ViiA 7 Real-Time PCR system (Thermo Fisher) with the thermal protocol: 25° for 15 s, Increase temp to 99° at a rate of 0.05°/sec, 99° for 15 sec. The fluorescence was recorded and analyzed by Protein Thermal Shift™ software. The mean |ΔTm| value for the biological triplicates were calculated and used for hit identification.

GPX4 [3] = biological target: T2, GPX4 (Homo sapiens, UniProt P36969, U73C); assay: Microscale thermophoresis (MST) binding to GPX4
T2 sequence (P36969 33-197 U73C): T1 sequence (P36969 33-197 U73C)
Text: (§1) Therefore, we applied a strategy of computer-facilitated design, based on MD simulation (Desmond) and Glide docking (Schrödinger Suite), and experimental high-throughput screening of a lead-optimized compound library of 10,000 compounds (FIGS. 6A-6E). All candidates were first evaluated by thermal denaturation assay and microscale thermophoresis (MST) to validate binding to GPX4 (Table 1). Surface plasmon resonance (SPR) and isothermal titration calorimetry (ITC) were then applied to precisely measure their binding kinetics and affinities, while ^1H-^15N heteronuclear single-quantum coherence (HSQC) NMR spectroscopy informed us of binding sites. We optimized two GPX4-specific activity assays to examine enzymatic inhibitory effects of hit compounds—LC-MS-based substrate/product monitoring and an NADPH-coupled assay. […] Some L880 analogues were also synthesized and tested (Table 2).

GPX4^U46C [4] = biological target: T1, GPX4^U46C; assay: 1H,15N-HSQC-NMR of 15N-labeled GPX4^U46C; type: binding; details: Table 1
Method: Uniformly ^15N-labeled GPX4^U46C protein with N-terminal His6 tag was prepared. The GPX4^U46C construct was expressed in E. coli BL21-Gold (DE3) cells (Stratagene) growing at 37° C. in M9 minimal medium supplemented with […] ampicillin, 2 mM MgSO4, […] CaCl2, 1× trace metals, 1×RPMI 1640 vitamin stock (Sigma-Aldrich, #R7256), […] biotin, […] thiamine hydrochloride, 4 g/L glucose, and 3 g/L ^15NH4Cl as the sole nitrogen source. The following induction, lysis, and protein purification was the same as for the non-isotope-labeled His-tagged GPX4^U46C described above, except the N-terminal His6 tag was removed by adding 5 U/mg thrombin before FPLC purification. The thrombin reaction was after a buffer exchange to remove imidazole, which otherwise would inhibit thrombin, and was allowed to proceed overnight at 4° C.
Then the protein solution was concentrated to 50 μM before testing. For HSQC of GPX4 with other inhibitors, 50 μM ^15N-labeled GPX4 was preincubated with 800 μM inhibitor to be tested for […] at room temperature in buffer (100 mM MES, 5 mM TCEP, pH 6.5). D20 (10%) was then added for the field frequency lock. The ^1H-^15N HSQC spectra were collected on Bruker Avance III 500 Ascend (500 MHz) spectrometers (Columbia University) at 298K. The ^1H carrier frequency was positioned at the water resonance. The ^15N carrier frequency was positioned at 115 ppm. The spectral width in the ^1H dimension was 7,500 Hz and the width in the ^15N dimension was 1,824.6 Hz. Suppression of water signal was accomplished using the WATERGATE sequence. Heteronuclear decoupling was accomplished using GARP decoupling scheme.

GPX4 [5] = biological target: T2, GPX4; assay: Surface plasmon resonance (SPR); type: binding; details: Table 1
Text: as §1, with “These x-ray structures enabled further optimization of current inhibitors and the design of novel inhibitors targeting various binding sites on GPX4. Therefore,” for “Therefore,”

GPX4 [6] = biological target: T3, GPX4 (Homo sapiens, UniProt P36969); assay: GPX4-specific enzymatic activity assay (LC-MS substrate/product, NADPH-coupled); type: biochemical
T3 sequence (P36969 1-170 isoform P36969-2): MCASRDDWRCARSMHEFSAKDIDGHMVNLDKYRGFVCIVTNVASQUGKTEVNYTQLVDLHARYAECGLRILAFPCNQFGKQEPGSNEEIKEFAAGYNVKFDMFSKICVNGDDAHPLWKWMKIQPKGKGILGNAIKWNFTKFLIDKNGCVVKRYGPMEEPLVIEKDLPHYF
Text: as §1, with “These x-ray structures enabled further optimization of current inhibitors and the design of novel inhibitors targeting various binding sites on GPX4. Therefore,” for “Therefore,”

GPX4^U46C [7] = biological target: T1, GPX4^U46C; assay: Intact protein MALDI MS analysis, GPX4^U46C; type: binding; details: protein preincubated with excess inhibitor
Method: GPX4^U46C or GPX4^AllCys(−)-A46C protein was pre-incubated with DMSO control or the inhibitor to be tested prior to MALDI MS analysis: 50 μM GPX4 protein was incubated with 500 μM inhibitors in FPLC buffer (100 mM Tris pH 8.0, 300 mM NaCl, and 3 mM TCEP) with 5% DMSO at RT for 1 hour before transferring to 4° C. overnight.
1 μl of the ligand-free protein (pre-incubated with DMSO) or protein-inhibitor complex (pre-incubated with the inhibitor to be tested) was mixed with 9 μl of 10 mg/ml sinapinic acid in the matrix solution (70:30 water/acetonitrile, with 0.1% TFA). 1.0 μl of the final mix was deposited onto the target carrier and allowed to air dry. MALDI spectrum was recorded using Bruker ultrafleXtreme MALDI-TOF instrument. The range of m/z detection and suppression was adjusted to accommodate the molecular weight of target protein. 2000 Hz and 50% intensity was applied for the laser setting. For each sample, five cumulative spectra were collected and the sum was recorded for analysis. All MALDI spectra of protein-inhibitor complex were compared with ligand-free protein to determine the mass shift. Mass shifts were aligned with the mass of potential staying group of each inhibitor to conclude covalent binding.

GPX4^U46C [8] = biological target: T1, GPX4^U46C; assay: Co-crystal structure of GPX4^U46C with inhibitor; type: binding
Method: GPX4^U46C was pre-incubated with the covalent inhibitors before crystallization using the following specifically optimized condition.
RSL3 and ML162 condition: 50 μM GPX4^U46C incubated with 150 μM RSL3 or ML162 in the reaction buffer (20 mM Tris pH 9.0, 100 mM NaCl, 3 mM TCEP, 1.5% DMSO) at 15° C. for 1 hour before transferring to 4° C. overnight. CDS9 condition: 25 μM GPX4^U46C incubated with 2 mM CDS9 in the reaction buffer (100 mM Tris pH 9.0, 300 mM NaCl, 1 mM TCEP, 2% DMSO) at 37° C. for 2 hours before transferring to 4° C. overnight. TMT10 condition: 25 μM GPX4^U46C incubated with 2 mM TMT10 in the reaction buffer (100 mM Tris pH 9.0, 300 mM NaCl, 2% glycerol, 2% DMSO) at 37° C. for 4 hours before transferring to 4° C. overnight. MAC-5576 condition: 50 μM GPX4^U46C protein was incubated with 500 μM MAC-5576 in the reaction buffer (100 mM Tris pH 9.0, 300 mM NaCl, and 3 mM TCEP, 5% DMSO) at RT for 1 hour before transferring to 4° C. overnight.
After confirmation of covalent binding using intact protein MALDI MS analysis, the protein-inhibitor complex were exchanged into crystallization buffer (10 mM Tris pH 8.0, 5 mM TCEP) and concentrated to 5 mg/ml.

| SMILES | degradation of endogenous GPX4 [1] | Thermal shift (GPX4^U46C [2]) | Kd (GPX4 [3]) [µM] | MST (GPX4 [3]; Table 1) | Binding site (GPX4^U46C [4]) | HSQC assay (GPX4^U46C [4]) | SPR (GPX4 [5]) | GPX4 enzymatic assay (GPX4 [6]) | Kd (GPX4 [3]; Table 1, read-out: MST Kd) [µM] | covalent binding to GPX4^U46C by intact protein MALDI MS (GPX4^U46C [7]) | binding site in co-crystal structure (GPX4^U46C [8]) |
| --- | --- | --- | --- | --- | --- | --- | --- | --- | --- | --- | --- |
| O=S(=O)(NC1CCCCC1)c1ccc2c(c1)C(=NO)c1cc(S(=O)(=O)NC3CCCCC3)ccc1-2 [FIN56] | significantly promoted degradation of GPX4 |  |  |  |  |  |  |  |  |  |  |
| CC(C)(C(=O)[O][Sn]([CH3])([CH3])[CH3])N1C(=O)c2ccccc2C1=O [LOC880] |  | positive | 6.7 | positive | Allosteric Site 2 | positive | positive | positive |  |  |  |
| CN(C)c1ccc(/C=C2\SC(N3CCN(CCO)CC3)=NC2=O)cc1 [LOC957] |  | positive |  | positive | Allosteric Site 2 | positive | positive | positive | 6.8 |  |  |
| CN(C)C(=O)c1ccc2c(c1)NC(=O)C1CCCN21 (stereo not drawn) [LOC4873] |  | positive |  | positive | Allosteric Site 2 | positive | positive | positive | 40 |  |  |
| O=C(Oc1cncc(Cl)c1)c1cccs1 [MAC-5576] |  |  |  |  |  |  |  |  |  | able to covalently modify GPX4 | bound to the cys66 allosteric site |
